Measurements as given in ChEMBL document CHEMBL5365435, “Design, Synthesis, and Biological Evaluation of Thioglucoside Analogues of Gliflozin as Potent New Gliflozin Drugs” (J Med Chem, 2023).
Activity calls are given as the source filed them. No cut-off for these calls is given here.

Experiments:
[1] = target: T1, Sodium/glucose cotransporter 2 (Homo sapiens, UniProt P31639); assay: Inhibition of SGLT2 (unknown origin)
T1 sequence (P31639 whole entry): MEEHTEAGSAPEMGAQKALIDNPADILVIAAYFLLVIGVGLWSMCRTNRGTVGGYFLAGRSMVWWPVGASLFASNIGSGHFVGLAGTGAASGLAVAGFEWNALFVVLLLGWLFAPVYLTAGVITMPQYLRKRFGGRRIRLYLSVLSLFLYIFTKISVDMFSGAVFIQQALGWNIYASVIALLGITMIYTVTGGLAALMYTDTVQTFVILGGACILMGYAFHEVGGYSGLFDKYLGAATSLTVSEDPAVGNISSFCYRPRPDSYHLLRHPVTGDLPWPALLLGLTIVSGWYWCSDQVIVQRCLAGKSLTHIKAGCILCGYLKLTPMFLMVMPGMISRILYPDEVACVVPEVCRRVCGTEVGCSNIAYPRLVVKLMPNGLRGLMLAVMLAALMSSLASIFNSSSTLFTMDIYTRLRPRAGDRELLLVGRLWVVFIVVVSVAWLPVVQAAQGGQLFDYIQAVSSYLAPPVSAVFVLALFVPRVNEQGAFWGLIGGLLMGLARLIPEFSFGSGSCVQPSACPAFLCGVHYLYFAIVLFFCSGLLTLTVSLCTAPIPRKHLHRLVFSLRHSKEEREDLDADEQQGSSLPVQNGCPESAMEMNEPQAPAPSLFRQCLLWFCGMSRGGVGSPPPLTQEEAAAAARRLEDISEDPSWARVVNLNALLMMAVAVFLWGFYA

[2] = target: T2, Sodium/glucose cotransporter 2 (Homo sapiens) (UniProt P31639); assay: Inhibition of SGLT2 in HEK293 cells assessed as 2-NBDG uptake at 100 uM preincubated for 1 hr followed by 2-NBDG addition and measured after 1 hr relative to control; type: cell-based; conditions: time 2.0 hrs
T2 sequence (whole entry): T1 sequence (P31639 whole entry)

HEK293 = assay: Cytotoxicity against HEK293 cells at 100 uM incubated for 24 hrs by MTT assay; type: toxicity, cell-based; conditions: human, hek293, 24 h
Mus musculus [3] = assay: Antidiabetic activity against C57BL/6J mouse assessed as decrease in blood glucose level at 3 mg/kg, po measured upto 8 hrs by glucometer analysis; type: functional, organism-based
Mus musculus [4] = assay: Antidiabetic activity against C57BL/6J mouse assessed as decrease in renal glucose level at 3 mg/kg, po measured upto 8 hrs by glucometer analysis; type: functional, organism-based
[5] = Half life in mouse at 3 mg/kg, po by LC analysis; type: ADME, organism-based; conditions: in vivo
[6] = AUCinfinity in mouse at 3 mg/kg, po by LC analysis; type: ADME, organism-based; set-up: dose 3 mg/kg, route po; conditions: in vivo
[7] = Cmax in mouse at 3 mg/kg, po by LC analysis; type: ADME, organism-based; set-up: dose 3 mg/kg, route po; conditions: in vivo
[8] = Tmax in mouse at 3 mg/kg, po by LC analysis; type: ADME, organism-based; conditions: in vivo
[9] = target: T2, Sodium/glucose cotransporter 2 (Homo sapiens); assay: Inhibition of SGLT2 (unknown origin) at 100 uM relative to control

Structure (SMILES)	IC50 [1]	inhibition [2]	Activity (HEK293)	other results
COc1ccc(Cc2ccccc2S[C@@H]2O[C@H](CO)[C@@H](O)[C@H](O)[C@H]2O)cc1	5.9 nM	> 90%	Non-Toxic	–
CCOC(=O)OC[C@H]1O[C@@H](Oc2ccccc2Cc2ccc(OC)cc2)[C@H](O)[C@@H](O)[C@@H]1O [SERGLIFLOZIN ETABONATE]	7.5 nM	–	–	–
Cc1cccc(S[C@@H]2O[C@H](CO)[C@@H](O)[C@H](O)[C@H]2O)c1Cc1ccc(-c2ccc(F)cc2)s1	2.5 nM	> 90%	Non-Toxic	–
Cc1cc(O)c(C(=O)CCc2ccc3occc3c2)c(O[C@@H]2O[C@H](CO)[C@@H](O)[C@H](O)[C@H]2O)c1	4.4 nM	–	–	–
Cc1ccc([C@@H]2O[C@H](CO)[C@@H](O)[C@H](O)[C@H]2O)cc1Cc1ccc(-c2ccc(F)cc2)s1 [CANAGLIFLOZIN ANHYDROUS]	2.4 nM	> 90%	–	–
CCOc1ccc(Cc2cc(S[C@@H]3O[C@H](CO)[C@@H](O)[C@H](O)[C@H]3O)ccc2Cl)cc1	–	57%	Non-Toxic	–
OC[C@H]1O[C@@H](c2ccc(Cl)c(Cc3ccc(O[C@H]4CCOC4)cc3)c2)[C@H](O)[C@@H](O)[C@@H]1O	–	–	–	Activity (Mus musculus [3]): Active; Activity (Mus musculus [4]): Active
CCOc1ccc(Cc2c(Cl)cccc2S[C@@H]2O[C@H](CO)[C@@H](O)[C@H](O)[C@H]2O)cc1	2.6 nM	> 90%	Non-Toxic	–
COc1ccc(Cc2ccccc2O[C@@H]2O[C@H](CO)[C@@H](O)[C@H](O)[C@H]2O)cc1 [SERGLIFLOZIN A]	7.5 nM	–	–	–
Cc1ccc(S[C@@H]2O[C@H](CO)[C@@H](O)[C@H](O)[C@H]2O)cc1Cc1ccc(-c2ccc(F)cc2)s1	–	54%	Non-Toxic	–
OC[C@H]1O[C@@H](Sc2cccc(Cl)c2Cc2ccc(O[C@H]3CCOC3)cc2)[C@H](O)[C@@H](O)[C@@H]1O	2 nM	> 90%	Non-Toxic	Activity (Mus musculus [3]): Active; half-life [5]: 3.67 h; AUC(0-inf) [6]: 12800 ng·h/mL; Cmax [7]: 4200 ng/mL; Tmax [8]: 1 h; Activity (Mus musculus [4]): Active
OC[C@H]1O[C@@H](Sc2ccc(Cl)c(Cc3ccc(O[C@H]4CCOC4)cc3)c2)[C@H](O)[C@@H](O)[C@@H]1O	–	62%	Non-Toxic	inhibition [9]: 62%
